Reference: patent US7875603B2, “Specific inhibitors for vascular endothelial growth factor receptors” (Nova Southeastern University, priority 2006, dated 2011)
pEC50: −log10 of the molar value.

Key:
Type in all cases: cell-based
[1] = test system: Human umbilical vein endothelial cell; assay: In Vitro Angiogenesis Assay (morphogenesis / tube formation on Matrigel); design: key to In Vitro Angiogenesis Assay Results (score of extent of cellular networks): Individual cells, well separated (+++++); Cells begin to migrate and align themselves (++++); Cells begin to line but not sprouting (+++); Visible Sprouting (++); Closed polygons begins to form (+); settings: for In Vitro Angiogenesis Assay Results (score of extent of cellular networks): HUVECs 10^4 cells/well on ECMatrix, inhibitors 1 mM and 10 mM, 8 hours at 37° C., higher score = greater inhibition of angiogenesis
Experimental: In Vitro Angiogenesis Assay
Human umbilical vein endothelial cell was purchased from Cambrex Co. (East Rutherford, N.J.) and maintained in EGM (Endothelial Growth Medium) supplemented with 2% FBS, 0.1% EGF, 0.1% Hydrocortisone, 0.1% GA-1000 and 0.4% BBE.
The morphogenesis assay on Matrigel was performed according to the manufacturer's instructions (Chemicon International). The ECMatrix™ kit consists of laminin, collagen type IV, heparan sulfate, proteoglycans, entactin and nidogen. It also contains various growth factors (TGF-β, FGF) and proteolytic enzymes (plasminogen, tPA, MMPs) that are normally produced in EHS tumors. The incubation condition was optimized for maximal tube-formation as follows: 50 μl of EC Matrix™ was suitably diluted in the ratio 9:1 with 10×diluent buffer and used for coating the 96-well plate. The coated plates were incubated at 37° C. for 1 hr. to allow the Matrix solution to solidify. In the meantime the HUVECs that were cultured for 24 hours in EGM with 2% FBS was trypsinised and re-suspended in the growth media and the cells were counted. After 1 hr. pre-incubation of the plate with Matrix solution, the HUVECs were plated at 10^4 cells/well in the absence or in the presence of different VEGFR inhibitors (1 mM and 10 mM). After 8 hours incubation at 37° C., the cell three-dimensional organization (cellular network structures) was examined under an inverted photomicroscope. Each treatment was performed in triplicate.
Activated endothelial cells form cellular networks (mesh like structures) resembling capillary tubes sprouting into the stromal space. The formation of these cellular networks is a dynamic process, which started migration and alignment of cells followed by the development of capillary tubes like structures, sprouting of new branches and finally the formation of the cellular networks. Although this in vitro angiogenesis kit is designed only as a qualitative assay, we have made an attempt to quantitate the degree of angiogenesis using a scoring method. The scoring was based on the extent of the cellular networks that were observed as follows:
Individual cells, well separated (+++++)
Cells begin to migrate and align themselves (++++)
Cells begin to line but not sprouting (+++)
Closed polygons begins to form (+).
According to our qualitative assessment, the higher the scoring the greater the efficiency of the compound for inhibiting endothelial cell mediated angiogenesis.

[2] = test system: MCF-7; assay: Cytotoxicity towards MCF-7 breast carcinoma cell line
[3] = test system: GI-101A; assay: Cytotoxicity towards GI-101A breast carcinoma cell line

Compound: CCCCCCCCCCCCCCCCOc1ccc(C(NNS(=O)(=O)c2cccc(C(=O)O)c2)N2CCCCC2)cc1 (stereo not shown) [Example 2]
- In Vitro Angiogenesis Assay Results (score of extent of cellular networks) [1]: ++++

Compound: CCCCCCCOc1ccc(/C=N\NC(=O)c2ccc(Br)cc2)cc1 [Example 4]
- In Vitro Angiogenesis Assay Results (score of extent of cellular networks) [1]: +++

Compound: COc1ccc(NCC(O)Cn2cnc3c2c(=O)n(C)c(=O)n3C)cc1 (stereo not shown) [Example 1]
- cytotoxicity towards MCF-7 [2]: produced cytotoxicity
- cytotoxicity towards GI-101A [3]: produced cytotoxicity
- In Vitro Angiogenesis Assay Results (score of extent of cellular networks) [1]: +++++
- pEC50 ([1]; Homo sapiens, estimated, in vitro angiogenesis assay, HUVEC, read-out: EC50 value for anti-antigenic effect): 6.60

Compound: CCCCCCCCCCCCCCCCCCOc1ccc(C(=O)CC(=O)Nc2ccc(Oc3ccc(C(=O)O)cc3)c(C(=O)O)c2)cc1 [Example 6]
- In Vitro Angiogenesis Assay Results (score of extent of cellular networks) [1]: ++

Compound: CCC(CNCCO)Nc1nc2c(c(=O)n(C)c(=O)n2C)n1Cc1ccccc1 (stereo not shown) [Example 7]
- In Vitro Angiogenesis Assay Results (score of extent of cellular networks) [1]: ++

Compound: CCCCCCCCCCCCCCCCCCOc1ccc(C(=O)CC(=O)Nc2ccc(Sc3cccc(C(=O)O)c3)c(C(=O)O)c2)cc1 [Example 5]
- In Vitro Angiogenesis Assay Results (score of extent of cellular networks) [1]: +++

Compound: CCCCCCCCCCOc1ccc(C(=O)N/N=C/c2ccc(OC)cc2)cc1 [Example 3]
- In Vitro Angiogenesis Assay Results (score of extent of cellular networks) [1]: ++++
